Results from ChEMBL document CHEMBL1649204, “Evaluation of analogs of reutericyclin as prospective candidates for treatment of staphylococcal skin infections” (Antimicrob Agents Chemother, 2009).
In brackets after ≈: the same amount, converted by molar mass. Activity calls are given as the source filed them. No cut-off for these calls is given here.

Legend:
[1] = system: Staphylococcus aureus; assay: Antimicrobial activity against methicillin-susceptible Staphylococcus aureus ATCC 29213 by microdilution method; assay type: functional
[2] = system: Staphylococcus aureus; assay: Antimicrobial activity against mupirocin- and methicillin-resistant Staphylococcus aureus by microdilution method; assay type: functional
[3] = system: Staphylococcus aureus; assay: Antimicrobial activity against methicillin-resistant Staphylococcus aureus by microdilution method; assay type: functional
[4] = system: Staphylococcus aureus; assay: Antimicrobial activity against Staphylococcus aureus isolate 8235 at >200 ug/ml by microdilution method in presence of 50 % human serum; assay type: functional, organism-based
[5] = system: Staphylococcus aureus; assay: Antimicrobial activity against Staphylococcus aureus ATCC 29213 infected BALB/c mouse at 10 % administered topically 4 hrs post infection twice a day for 5 days; assay type: functional, organism-based
[6] = Therapeutic index, ratio of IC50 for human CCD-32Sk cells to MIC for Staphylococcus aureus 8235; assay type: cell-based; conditions: read-out: TI
[7] = system: Staphylococcus aureus; assay: Antimicrobial activity against methicillin-resistant Staphylococcus aureus ATCC 33591 by microdilution method; assay type: functional
[8] = system: Staphylococcus epidermidis; assay: Antimicrobial activity against Staphylococcus epidermidis RP62A grown as biofilms by microdilution method; assay type: functional
[9] = Cytotoxicity against human CCD-32Sk cells after 48 hrs by MTT assay; assay type: cell-based
[10] = system: Streptococcus pyogenes; assay: Antimicrobial activity against Streptococcus pyogenes by microdilution method; assay type: functional
[11] = system: Staphylococcus epidermidis; assay: Antimicrobial activity against Staphylococcus epidermidis RP62A by microdilution method; assay type: functional
[12] = system: Staphylococcus aureus; assay: Antimicrobial activity against Staphylococcus aureus 8235 by microdilution method; assay type: functional
[13] = system: Staphylococcus aureus; assay: Antimicrobial activity against Staphylococcus aureus 8235 selected after 4 times MIC pre-incubated for 1 hr by microdilution method; assay type: functional
[14] = system: Staphylococcus aureus; assay: Bacteriostatic activity against Staphylococcus aureus isolate 8235 assessed as log reduction in bacterial count at 32 times MIC after 24 hrs by microdilution method; assay type: functional
[15] = system: Staphylococcus aureus; assay: Antimicrobial activity against methicillin-susceptible Staphylococcus aureus ATCC 29213 grown as biofilms by microdilution method; assay type: functional
[16] = system: Staphylococcus aureus; assay: Antimicrobial activity against methicillin-susceptible Staphylococcus aureus by microdilution method; assay type: functional
[17] = system: Staphylococcus aureus; assay: Antimicrobial activity against methicillin-resistant Staphylococcus aureus ATCC 33591 grown as biofilms by microdilution method; assay type: functional
[18] = Homo sapiens, CCD-32Sk, 48 h, read-out: IC50

SMILES	MIC [1] [µg/mL]	MIC50 [2] [µg/mL]	MIC90 [2] [µg/mL]	MIC50 [3] [µg/mL]	MIC90 [3] [µg/mL]	Activity [4]	selectivity ratio [6]	MIC [7] [µg/mL]	MBEC [8] [µg/mL]	MBIC [8] [µg/mL]	IC50 [9, 18] [µg/mL]	MIC50 [10] [µg/mL]	MIC90 [10] [µg/mL]	MIC [11] [µg/mL]	MIC [12]	MIC [13] [µg/mL]	FC [14]	MBEC [15]	MBIC [15] [µg/mL]	MIC50 [16] [µg/mL]	other results
C/C(O)=C1\C(=O)[C@H](CC(C)C)N(CC2=CCC3CC2C3(C)C)C1=O (stereo not given in full)	1.6 (≈ 4.83 µM)	3.12 (≈ 9.41 µM)	3.12 (≈ 9.41 µM)	3.12 (≈ 9.41 µM)	3.12 (≈ 9.41 µM)	inactive	15.1	1.6 (≈ 4.83 µM)	>400	1.6	377 (≈ 1140 µM)	0.4 (≈ 1.21 µM)	1.6 (≈ 4.83 µM)	3.12 (≈ 9.41 µM)	25 µg/mL (≈ 75.4 µM)	1.6 (≈ 4.83 µM)	2.6	>=400 ug ml-1	6.2	1.6 (≈ 4.83 µM)	Activity [5]: Active; MIC [16]: 1.6 µg/mL (≈ 4.83 µM); MIC90 [16]: 3.12 µg/mL (≈ 9.41 µM)
C/C(O)=C1\C(=O)[C@H](CC(C)C)N(CCC(C)C/C=C/C(C)C)C1=O (stereo not given in full)	0.8 (≈ 2.38 µM)	0.8 (≈ 2.38 µM)	1.6 (≈ 4.77 µM)	0.8 (≈ 2.38 µM)	1.6 (≈ 4.77 µM)	inactive	10.2	0.8 (≈ 2.38 µM)	200	0.4	256 (≈ 763 µM)	0.4 (≈ 1.19 µM)	0.8 (≈ 2.38 µM)	0.8 (≈ 2.38 µM)	25 µg/mL (≈ 74.5 µM)	0.8 (≈ 2.38 µM)	2.6	50 µg/mL	3.12	0.8 (≈ 2.38 µM)	MIC [2]: 0.8 µg/mL (≈ 2.38 µM); MBIC [17]: 0.4 µg/mL; MIC90 [16]: 1.6 µg/mL (≈ 4.77 µM)
CCCCCCCCCCN1C(=O)/C(=C(/C)O)C(=O)[C@@H]1C(C)C	0.8 (≈ 2.47 µM)	1.6 (≈ 4.95 µM)	3.12 (≈ 9.65 µM)	0.8 (≈ 2.47 µM)	1.6 (≈ 4.95 µM)	inactive	14.4	0.8 (≈ 2.47 µM)	25	0.8	356 (≈ 1100 µM)	0.2 (≈ 0.618 µM)	0.8 (≈ 2.47 µM)	0.8 (≈ 2.47 µM)	25 µg/mL (≈ 77.3 µM)	0.8 (≈ 2.47 µM)	2.6	25 µg/mL	1.6	0.8 (≈ 2.47 µM)	MBIC [17]: 0.8 µg/mL; MIC90 [16]: 0.8 µg/mL (≈ 2.47 µM)
CC1(C)S[C@@H]2[C@H](NC(=O)[C@H](N)c3ccc(O)cc3)C(=O)N2[C@H]1C(=O)O [AMOXICILLIN]															inactive	12.5 (≈ 34.2 µM)	2.6				IC50 ([9]; ccd-32sk): Not Active
C=C(NC(=O)[C@@H](NC(=O)[C@H](Cc1cnc[nH]1)NC(=O)[C@@H](NC(=O)[C@H](CO)NC(=O)[C@@H]1CS[C@@H](C)[C@H]2NC(=O)C(=C)NC(=O)[C@H](NC(=O)[C@H](CCCCN)NC(=O)[C@H](CCSC)NC(=O)[C@H](CC(N)=O)NC(=O)[C@@H]3CS[C@@H](C)[C@@H](NC(=O)[C@H](CCCNN)NC(=O)[C@@H]4CS[C@@H](C)[C@@H](NC(=O)[C@@H]5CSC[C@@H](NC(=O)/C(=C\C)NC(=O)[C@@H](N)[C@@H](C)CC)C(=O)N[C@@H]([C@@H](C)CC)C(=O)NC(=C)C(=O)N[C@@H]([C@@H](C)CC)C(=O)N5)C(=O)N5CCC[C@H]5C(=O)NCC(=O)N4)C(=O)NCC(=O)N[C@@H](C)C(=O)N[C@@H]([C@@H](C)CC)C(=O)N[C@@H](CCSC)C(=O)NCC(=O)N3)[C@H](C)SC[C@H](NC2=O)C(=O)N[C@H](Cc2cnc[nH]2)C(=O)N1)[C@@H](C)CC)C(C)C)C(=O)N[C@@H](CCCCN)C(=O)O [NISIN]															inactive		2.6				IC50 ([9]; ccd-32sk): Not Active
